US9145375B2, “Quinazolinone compounds” (PRANA BIOTECHNOLOGY LIMITED, priority 2008, dated 2015)
Several values for one entry are separate records, joined by “and”; a condition that tells them apart may be missing. Identical values can stand only once.

Tests used:
[1] = tested on: generation of hydrogen peroxide (H2O2) by iron; assay: H2O2 Inhibition Assay; assay type: biochemical
Protocol: Assay 1. H2O2 Inhibition Assay.
(§1) This fluoresence assay evaluates the ability of a test compound to inhibit the generation of hydrogen peroxide (H2O2) by iron in the presence of a reducing substrate such as ascorbic acid. In the assay, iron in the form of FeCl3 or copper is allowed to react with ascorbic acid by incubating for 1 hr at 37° C. in the presence of the fluorescing compound DCF and horseradish peroxidase. H2O2 generated by the system is assessed by measuring the specific fluorescence profile at the excitation and emission wavelengths of 485 and 530 nm respectively, in the presence of increasing concentrations of test compound. Test compounds are ranked according to their capacity to inhibit H2O2 generated by the system where lower values reflect greater ability to inhibit H2O2 production.

[2] = tested on: Fe-DA; assay: H2O2 assay, Fe-DA (% cf. Fe 0.4 μM/DA 50 μM); assay type: biochemical; conditions: Fe 0.4 μM/DA 50 μM
Protocol: as §1

[3] = tested on: Neuronal cortical cells; assay: Cytotox (% viable); Primary Neuronal Cells Neurotoxicity Assay; assay type: cell-based, mouse; conditions: cell type not given, repeat values given
Protocol: Assay 2 (a). Primary Neuronal Cells Neurotoxicity Assays
Cortical cultures were prepared as previously described (White et al., 1998). Embryonic day 14 BL6Jx129sv mouse cortices were removed, dissected free of meninges and dissociated in 0.025% (wt/vol) trypsin. Dissociated cells were plated in 48 well culture plates at a density of 2×10^6 cells/mL in MEM with 25% (vol/vol) FCS and 5% (vol/vol) HS and incubated at 37° C., 2 hrs. Media was then replaced with Neurobasal media (Invitrogen Life Technologies) and B27 supplements (Invitrogen Life Technologies). Cultures were maintained at 37° C. in 5% CO2. Prior to experimentation, the culture medium was replaced with Neurobasal media and B27 minus antioxidants (Invitrogen Life Technologies).
Neuronal cortical cells were cultured for five days as per Assay 2 in NB media and B27 supplement.
On day six the test compounds were added to the neuronal cell cultures in NB media and B27 supplement minus antioxidants.
Test compounds were dissolved in 100% DMSO to a concentration of 2.5 mM (10 mM if excess compound was weighed out per vial—then diluted to 2.5 mM). 2.5 mM stock solution was serially diluted 1 in 10 to give working solutions of 250 uM, 25 uM, 2.5 uM. Test compounds were not added directly to cells, instead they were added to a 48 well ‘Drug Plate’ as comprised below: • Preparation of “Drug Plate”:
Well 1: 576 ul NB+B27 (no antioxidant)*+24 ul 2.5 uM test compound
Well 2: 576 ul NB+B27 (no antioxidant)+24 μl 25 uM test compound
Well 3: 576 ul NB+B27 (no antioxidant)+24 ul 250 uM test compound
Well 4: 576 ul NB+B27 (no antioxidant)+24 ul 2.5 uM test compound
Well 5: 576 ul NB+B27 (no antioxidant)+24 ul 25 uM test compound
Well 6: 576 ul NB+B27 (no antioxidant)+24 ul 250 uM test compound
Well 7: 576 ul NB+B27 (no antioxidant)+24 ul test compound diluent**
Well 8: 600 ul NB+B27 (no antioxidant)
The Drug Plate was incubated at 37° C. for 15 mins. 200 ul of each well was added in triplicate to the corresponding cell plate. The cell plate was incubated at 37° C., for 4 days, (2 compounds are tested on each plate of cells).
*NB media and B27 (no antioxidants),
**PBT diluent 10% DMSO in NB+1327 (no antioxidants)
On completion of the assay, 1/10 volume MTS was added per well of plate (ie 25 ul/250 ul). The plates were incubated at 37° C. for 2 hrs, and then absorbance was read at 560 nm.

[4] = tested on: M17 human neuroblastoma cells; assay: Metal Uptake Assay (metal transport); assay type: cell-based; conditions: 10 μM Cu + 10 μM compound, 5 hours
Protocol: Assay 3. Metal Uptake Assay
M17 human neuroblastoma cells are plated out on 6 well plates and left overnight. Enough cells are added to give approximately 70% confluent the following day of the experiment. Test compounds are added to media and mixed with equi-molar amounts of CuCl2 solution. A=10 μM Cu+10 μM MPAC; B=10 μM Cu+10 μM MPAC.
Cells are incubated in 1 ml of media/MPAC/Cu mix for 5 hours at 37° C. At the end of the incubation the media is removed with a vacuum aspirator and 1 ml of PBS added to dislodge the cells. Cells are then put into Eppendorf tubes and pelleted. The PBS is removed and the remaining cell pellets are frozen at −20 C.
The cell pellets are prepared as follows:
Received cell pellets of similar levels in 1.5 ml microfuge tubes. Added 50 μl of concentrated Nitric Acid (Aristar, BDH) to each cell pellet and allowed them to digest over night. Heated the samples for 20 min at 90° C. to complete the digestion. The volume of each sample was reduced to ˜45 ul after digestion. Added 1 ml of the 1% Nitric Acid diluent to each sample. (referred to as the “preparation solution” samples).
Measurements were made using a Varian UltraMass ICPMS instrument under operating conditions suitable for routine multi-element analysis.
The instrument was calibrated using Blank, 10, 50 and 100 ppb of a certified multi-element ICPMS standard solution (ICP-MS—CAI2-1, Accustandard) for Fe, Cu and Zn in 1% nitric acid. Used an certified internal standard solution containing 100 ppb Yttrium (Y 89) as an internal control (ICP-MS—IS-MIX1-1, Accustandard).

Row | SMILES | IC50 [1] [nM] | Fe-DA % cf. Fe 0.4 μM/DA 50 μM [2] [%] | Cytotox (% viable at 1 uM) [3] | Metal transport [4] | Cytotox (% viable at 10 uM) [3]
1 | CNCc1nc2c(O)c(Cl)cc(Cl)c2c(=O)n1CC(C)C [Compound F4544] | 830 | 164 | 84.0% and 86.9% | Metal transport 19% | 29.7% and 26.7%
2 | CCCN(CCC)Cc1nc2c(O)c(Cl)cc(Cl)c2c(=O)n1CC [Compound F4550] | 750 | 128 | 88.7% and 94.7% | Metal transport 35% | 71.7% and 83.5%
3 | CCCCN(C)Cc1nc2c(O)c(Cl)cc(Cl)c2c(=O)n1C [Compound F4552] | 630 | 59 | 97.8% and 99.0% | Metal transport 94% | 58.7% and 62.8%
4 | CCN(C)Cc1nc2c(O)c(Cl)cc(Cl)c2c(=O)n1CC1CC1 [Compound F4581] | 500 | – | – | – | –
5 | CCN(C)Cc1nc2c(O)c(Cl)cc(Cl)c2c(=O)n1C [Compound F4582] | 550 | – | – | – | –

The next lines start with results.

Row | IC50 [1] [nM] | SMILES | Fe-DA % cf. Fe 0.4 μM/DA 50 μM [2] [%] | Cytotox (% viable at 1 uM) [3] | Metal transport [4] | Cytotox (% viable at 10 uM) [3]
6 | 360 | CCCNCc1nc2c(O)c(Cl)cc(Cl)c2c(=O)n1CCC [Compound F4542] | 47 | 105.8% and 102.9% and 94.3% | Metal transport 30% | –
7 | 500 | CCCN(CCC)Cc1nc2c(O)c(Cl)cc(Cl)c2c(=O)n1CCC [Compound F4543] | 71 | 92.0% and 107.4% | Metal transport 62% | 52.6% and 61.5%
8 | 430 | CCNCc1nc2c(O)c(Cl)cc(Cl)c2c(=O)n1CC(C)C [Compound F4545] | 148 | 86.4% and 85.0% | Metal transport 40% | 36.2% and 28.0%
9 | 460 | CCN(CC)Cc1nc2c(O)c(Cl)cc(Cl)c2c(=O)n1CC(C)C [Compound F4546] | 66 | 95.6% and 92.2% and 103.3% | Metal transport 21% | 63.7% and 86.5% and 100.3%
10 | 500 | CCCNCc1nc2c(O)c(Cl)cc(Cl)c2c(=O)n1CC(C)C [Compound F4547] | 34 | 75.0% and 83.9% | Metal transport 54% | 25.2% and 26.0%
11 | 380 | CCCN(CCC)Cc1nc2c(O)c(Cl)cc(Cl)c2c(=O)n1CC(C)C [Compound F4548] | 40 | 96.5% and 96.0% | Metal transport 38% | 55.9% and 46.0%
12 | 300 | CCCNCc1nc2c(O)c(Cl)cc(Cl)c2c(=O)n1CC [Compound F4549] | 40 | 98.5% and 99.7% | Metal transport 22% | 44.6% and 52.1%
13 | 450 | CCCN(CCC)Cc1nc2c(O)c(Cl)cc(Cl)c2c(=O)n1C [Compound F4551] | 56 | 89.7% and 96.9% | Metal transport 30% | 50.7% and 62.5%
